Test [1] concerns Puccinia recondita (f. sp. tritici Races PKB and PLD). Briefly: whole plant or invertebrate. The note with it: Puccinia recondita, 240 h; read-out: % control WLR. Type of test: in vivo.
The test system of another test is Pseudomonas fluorescens. Briefly: Minimum Inhibitory Concentration Test, alternate (Table 4), Ps.fl. Type of test: cell-based. The note with it: Pseudomonas fluorescens, TSB, 72 hours, 30° C. The protocol: (§1) A 125 μl aliquot of 10,000 ppm test compound in acetone was added to 4.88 ml of TSB to provide a 250 ppm solution. From this solution, 100 μL was transferred to the first row of two microtiter plate columns. Both replicates and five additional compounds were all serially diluted 1:1 to a final concentration of 0.8 ppm in TSB.
(§2) Inoculation was accomplished by diluting a 24 hr Ps fl culture, four mls per 36 mls of phosphate buffer solution. A Dynatech autoinoculator was used to transfer 1.5 μl of this cell suspension to the microtiter plates. The plates were incubated at 30° C. for 3 days before the lowest concentration at which no growth occurs was recorded in the database. The SOK data and MIC test data on Ps.fl, Ps.ae, E.c, and S.a. bacteria and Candida albicans (C.alb), A.n and A.p fungi are listed in Table 4.

The test system of another test is S.a. Briefly: Minimum Inhibitory Concentration Test, alternate (Table 4), S.a. Type of test: cell-based, Staphylococcus aureus. As to conditions: Staphylococcus aureus, TSB, 72 hours. The protocol:
as §1, §2

In the next test the test system is Phytophthora infestans. Nature of the test: whole plant or invertebrate. Type of test: in vivo. The note with it: Phytophthora infestans, in Solanum lycopersicum, 96 h, read-out: % control TLB.
The test system of the next test is A.p. Nature of the test: Minimum Inhibitory Concentration Test, alternate (Table 4), A.p. It counts as cell-based. As to conditions: Aureobasidium pullulans, TSB, 72 hours. The protocol: as §1, §2
Test [2] has as its system Erysiphe graminis (f. sp. tritici). Nature of the test: whole plant or invertebrate. As to conditions: Blumeria graminis; read-out: % control WPM. Type of test: in vivo.
In the next test the test system is A.n. Nature of the test: Minimum Inhibitory Concentration Test, alternate (Table 4), A.n. It counts as cell-based, Aspergillus niger. As to conditions: Aspergillus niger, TSB, 72 hours. The protocol:
as §1, §2

For a further test, the system named is Piricularia oryzae. Nature of the test: whole plant or invertebrate. It counts as in vivo. As to conditions: Pyricularia oryzae, read-out: % control RB.
The test system of test [3] is Pellicularia filamentosa (f. sp. sasiki). Nature of the test: whole plant or invertebrate. The note with it: 120 h; read-out: % control RSB. It counts as in vivo.
For another test, the system named is E.c. Briefly: Minimum Inhibitory Concentration Test, alternate (Table 4), E.c. It counts as cell-based, Escherichia coli. As to conditions: Escherichia coli, TSB, 72 hours. The protocol:
as §1, §2

The next test relates to Candida albicans (C.alb). Nature of the test: Minimum Inhibitory Concentration Test, alternate (Table 4), C.alb. Type of test: cell-based. The note with it: Candida albicans, TSB, 72 hours. The protocol: as §1, §2
Test [4] deals with Pseudoperonospora cubensis. Nature of the test: whole plant or invertebrate. It counts as in vivo. The note with it: Pseudoperonospora cubensis, in Cucumis sativus, 168 h; read-out: % control CDM.
Another test deals with Ps.ae. Nature of the test: Minimum Inhibitory Concentration Test, alternate (Table 4), Ps.ae. The note with it: Pseudomonas, TSB, 72 hours. Type of test: cell-based, Pseudomonas aerugenosa.

In general, MIC refers to the smallest concentration in the dilution series that meets the test's criterion for growth inhibition.

Structures are written as SMILES. ≈ marks a conversion by molar mass, not a printed value.

For the compound `CCCCCCCCNC(=O)/C=C\SC(C(=O)Nc1ccc(Cl)cc1Cl)C(=O)OCC` (stereo not drawn) [Example 41, N-n-octyl-cis-3-{2-[ethyl-N-(2,4-dichlorophenyl)malonamido]thio}acrylamide], the pest or weed control at 100 ppm in test [1] was found to be 0%; with Phytophthora infestans it was 87%; in [2] it was 50%; in the test on Piricularia oryzae it was 99%; in test [3] it was 0%; in test [4], 100%. The MIC is above 500 µg/mL in the test with Pseudomonas fluorescens; above 500 µg/mL against S.a; 8 µg/mL (≈ 16.3 µM) against A.p; 8 to 31 µg/mL (≈ 16.3 to 63.3 µM) in the test on A.n; above 500 µg/mL in the test on E.c; 63 µg/mL (≈ 129 µM) against Candida albicans (C.alb). The compound also gave an MIC against Ps.ae above 500 µg/mL.

On to `CCCCCCCCNC(=O)/C=C\SC(C(C)=O)C(=O)OCC` (stereo not drawn) [Example 11, N-n-octyl-cis-3-[2-(ethoxy-3-oxobutanoyl)thio]acrylamide], for which the pest or weed control at 200 ppm in [1] worked out at 50%; with Phytophthora infestans, 0%; in test [2], 50%; with Piricularia oryzae, 0%; in test [3] it was 0%; in test [4] it was 85%. In addition, the MIC against Pseudomonas fluorescens was 250 to 500 µg/mL (≈ 728 to 1460 µM); against S.a, above 500 µg/mL; in the test with A.p it was below 4 µg/mL; against A.n, 4 to 8 µg/mL (≈ 11.6 to 23.3 µM); against E.c, above 500 µg/mL; in the test on Candida albicans (C.alb), below 4 µg/mL. This compound also had an MIC against Ps.ae above 500 µg/mL.

Regarding `CCCCCCCCNC(=O)/C=C\SC(C(=O)NN1CCOCC1)C(=O)OCC` (stereo not drawn) [Example 63, N-n-octyl-cis-3-{2-[ethyl-N-(4-morpholino)malonamido]thio}acrylamide], the pest or weed control at 100 ppm in [1] came out at 0%; in the test with Phytophthora infestans it was 0%; in test [2], 0%; with Piricularia oryzae, 0%; in test [3], 0%; in test [4] it was 99%. The MIC was above 250 µg/mL in the test on Pseudomonas fluorescens; 31 µg/mL (≈ 72.2 µM) in the test with S.a; below 2 µg/mL against A.p; 2 to 16 µg/mL (≈ 4.66 to 37.2 µM) against A.n; 250 µg/mL (≈ 582 µM) against E.c; below 2 µg/mL in the test on Candida albicans (C.alb). In the test on Ps.ae, this compound showed a minimum inhibitory concentration (MIC) above 250 µg/mL.

Take `CCCCCCCCNC(=O)/C=C\SC(C(=O)Nc1ccc(Cl)c([N+](=O)[O-])c1)C(=O)OCC` (stereo not drawn) [Example 48, N-n-octyl-cis-3-{2-[ethyl-N-(3-nitro-4-chlorophenyl)malonamido]thio}acrylamide]: the pest or weed control at 100 ppm in test [1] was determined as 50%; with Phytophthora infestans, 99%; in [2], 0%; in the test on Piricularia oryzae it was 0%; in test [3] it was 0%; in test [4], 99%. Further, the MIC against Pseudomonas fluorescens was above 250 µg/mL; in the test on S.a, above 250 µg/mL; in the test on A.p, below 2 µg/mL; against A.n it was 4 to 31 µg/mL (≈ 8 to 62 µM); against E.c, above 250 µg/mL; in the test on Candida albicans (C.alb) it was 31 µg/mL (≈ 62 µM). In the test on Ps.ae, this compound showed an MIC above 250 µg/mL.

For `CCCCCCCCNC(=O)/C=C\SC(C(=O)Nc1ccc(OC)c(Cl)c1)C(=O)OCC` (stereo not drawn) [Example 50, N-n-octyl-cis-3-{2-[ethyl-N-(3-chloro-4-methoxyphenyl)malonamido]thio}acrylamide], the pest or weed control at 100 ppm in test [1] was 50%; in the test on Phytophthora infestans, 0%; in test [2], 0%; in the test on Piricularia oryzae it was 0%; in test [3] it was 0%; in [4], 85%. Besides, the MIC is above 250 µg/mL in the test with Pseudomonas fluorescens; above 250 µg/mL against S.a; below 2 µg/mL in the test on A.p; above 250 µg/mL in the test on E.c; 63 to 250 µg/mL (≈ 130 to 515 µM) against Candida albicans (C.alb); above 250 µg/mL in the test on Ps.ae.

Consider `CCCCCCCCNC(=O)/C=C\SC(C(=O)Nc1ccc(OC)cc1)C(=O)OCC` (stereo not drawn) [Example 58, N-n-octyl-cis-3-{2-[ethyl-N-(4-methoxyphenyl)malonamido]thio}acrylamide], for which the pest or weed control at 100 ppm in test [1] turned out to be 0%; in the test with Phytophthora infestans, 0%; in [2], 0%; in the test with Piricularia oryzae it was 0%; in test [3], 0%; in [4], 100%. Moreover, the figures for the minimal inhibitory concentration (MIC) in the test on Pseudomonas fluorescens and against A.n were above 500 µg/mL and 250 µg/mL (≈ 555 µM), respectively.

As to `CCCCCCCCNC(=O)/C=C\SC(C(=O)Nc1nccs1)C(=O)OCC` (stereo not drawn) [Example 25, N-n-octyl-cis-3-{2-[ethyl-N-(2-thiazoyl)malonamido]thio}acrylamide], the pest or weed control at 200 ppm in [1] was found to be 75%; with Phytophthora infestans, 80%; in test [2], 0%; in the test with Piricularia oryzae it was 0%; in test [3], 50%; in test [4], 100%. For the same compound, the MIC with Pseudomonas fluorescens and in the test on A.n was above 500 µg/mL in each case.

Regarding `CCCCCCCCNC(=O)/C=C\SC(C(=O)Nc1cccc(Cl)c1C)C(=O)OCC` (stereo not drawn) [Example 39, N-n-octyl-cis-3-{2-[ethyl-N-(2-methyl-3-chlorophenyl)malonamido]thio}acrylamide], the pest or weed control at 100 ppm is 75% in [1]; 100% with Phytophthora infestans; 50% in [2]; 50% in the test with Piricularia oryzae; 0% in test [3]; 100% in [4]. Besides, the minimum inhibitory concentration (MIC) was above 500 µg/mL against Pseudomonas fluorescens and 500 µg/mL (≈ 1070 µM) against A.n.

`CCCCCCCCNC(=O)/C=C\SC(C(=O)NCc1cccc([N+](=O)[O-])c1)C(=O)OCC` (stereo not drawn) [Example 65, N-n-octyl-cis-3-{2-[ethyl-N-(3-nitrobenzyl)malonamido]thio}acrylamide]: the pest or weed control at 100 ppm in [1] amounted to 50%; with Phytophthora infestans, 80%; in test [2], 0%; in the test on Piricularia oryzae, 0%; in test [3], 0%; in test [4] it was 100%. The MIC in the test on Pseudomonas fluorescens and against A.n was above 250 µg/mL in each case.

Consider `CCCCCCCCNC(=O)/C=C\SC(C(=O)Nc1ccc(Cl)c(Cl)c1)C(=O)OCC` (stereo not drawn) [Example 52, N-n-octyl-cis-3-{2-[ethyl-N-(3,4-dichlorophenyl)malonamido]thio}acrylamide], for which the pest or weed control at 100 ppm was 0% in [1]; 80% in the test on Phytophthora infestans; 0% in [2]; 80% with Piricularia oryzae; 0% in test [3]; 99% in test [4]. In addition, the MIC in the test with Pseudomonas fluorescens and against A.n was above 500 µg/mL each time.

Consider `CCCCCCCCNC(=O)/C=C\SC(C(=O)NCCCCCC)C(=O)OCC` (stereo not drawn) [Example 17, N-n-octyl-cis-3-[2-(ethyl-N-n-hexylmalonamido)thio]acrylamide], for which the pest or weed control at 200 ppm was 75% in test [1]; 90% in the test on Phytophthora infestans; 0% in [2]; 0% with Piricularia oryzae; 0% in test [3]; 100% in test [4]. The MIC against Pseudomonas fluorescens and against A.n was above 500 µg/mL throughout.

On to `CCCCCCCCNC(=O)/C=C\SC(C(=O)Nc1cc([N+](=O)[O-])ccc1Cl)C(=O)OCC` (stereo not drawn) [Example 45, N-n-octyl-cis-3-{2-[ethyl-N-(2-chloro-5-nitrophenyl)malonamido]thio}acrylamide], for which the pest or weed control at 25 ppm in [1] was 50%. Also, the minimal inhibitory concentration (MIC) is above 250 µg/mL against Pseudomonas fluorescens; 63 µg/mL (≈ 126 µM) with S.a; below 2 µg/mL in the test with A.p; 4 to 8 µg/mL (≈ 8 to 16 µM) against A.n; above 250 µg/mL in the test with E.c; 4 µg/mL (≈ 8 µM) in the test with Candida albicans (C.alb). In the test on Ps.ae, this compound came in with an MIC above 250 µg/mL. Besides, the pest or weed control at 100 ppm (in the test on Phytophthora infestans; in test [2]; in the test on Piricularia oryzae; in test [3]) was 0% in each case.

These data come from patent publication US5118681A (priority 1989, dated 1992).
